Measured values reported in PubChem BioAssay AID1963437 (Molecular Pharmacology Branch, DTP, NCI, 2024).

Test system: OVCAR-8 complex spheroid, growth inhibition
Experiment: Anticancer human tumor OVCAR-8 cell line growth inhibition [Asc];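 also: spheroids exposed to agents for 7 days before readout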;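 as to viability, T/C: percent viability relative to DMSO vehicle wells taken as 100%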
Conditions: for IC50: curve of first compound; for viability, T/C: stronger effect = lower value
Method in brief: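 Complex spheroids combining tumor cells with HUVEC endothelial cells and human MSCs, at 37 degrees C, 5% CO2; agents tested alone or combined, half-log dilutions from at or near clinical Cmax, or 10 microM if Cmax unknown.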

[1] = second compound 0.0316 µM, first compound 0.00316 µM
[2] = second compound 0.0316 µM, first compound 0.01 µM
[3] = second compound 0.0316 µM, first compound 0.0316 µM
[4] = second compound 0.0316 µM, first compound 0.1 µM
[5] = second compound 0.0316 µM, first compound 0.316 µM
[6] = second compound 0.0316 µM, first compound 1 µM
[7] = second compound 0.1 µM, first compound 0.00316 µM
[8] = second compound 0.1 µM, first compound 0.01 µM
[9] = second compound 0.1 µM, first compound 0.0316 µM
[10] = second compound 0.1 µM, first compound 0.1 µM
[11] = second compound 0.1 µM, first compound 0.316 µM
[12] = second compound 0.1 µM, first compound 1 µM
[13] = second compound 0.316 µM, first compound 0.00316 µM
[14] = second compound 0.316 µM, first compound 0.01 µM
[15] = second compound 0.316 µM, first compound 0.0316 µM
[16] = second compound 0.316 µM, first compound 0.1 µM
[17] = second compound 0.316 µM, first compound 0.316 µM
[18] = second compound 0.316 µM, first compound 1 µM
[19] = second compound 1 µM, first compound 0.00316 µM
[20] = second compound 1 µM, first compound 0.01 µM
[21] = second compound 1 µM, first compound 0.0316 µM
[22] = second compound 1 µM, first compound 0.1 µM
[23] = second compound 1 µM, first compound 0.316 µM
[24] = second compound 1 µM, first compound 1 µM
[25] = second compound 3.16 µM, first compound 0.00316 µM
[26] = second compound 3.16 µM, first compound 0.01 µM
[27] = second compound 3.16 µM, first compound 0.0316 µM
[28] = second compound 3.16 µM, first compound 0.1 µM
[29] = second compound 3.16 µM, first compound 0.316 µM
[30] = second compound 3.16 µM, first compound 1 µM
[31] = second compound 10 µM, first compound 0.00316 µM
[32] = second compound 10 µM, first compound 0.01 µM
[33] = second compound 10 µM, first compound 0.0316 µM
[34] = second compound 10 µM, first compound 0.1 µM
[35] = second compound 10 µM, first compound 0.316 µM
[36] = second compound 10 µM, first compound 1 µM

CCN1CCN(Cc2ccc(Nc3ncc(F)c(-c4cc(F)c5nc(C)n(C(C)C)c5c4)n3)nc2)CC1 + Cc1c(S(C)(=O)=O)c(-c2cc(F)cc(N3CCN(c4ccc(NS(=O)(=O)c5ccc(NC(CCN6CCC(C(=O)OCCCP(=O)(O)O)CC6)CSc6ccccc6)c(S(=O)(=O)C(F)(F)F)c5)cc4)CC3)c2)c(-c2ccc(Cl)cc2)n1C(C)C
IC50 (second compound 0.0316 µM): > 1000 nM | IC50 (second compound 0.1 µM): > 1000 nM | IC50 (second compound 0.316 µM): > 1000 nM | IC50 (second compound 1 µM): > 1000 nM | IC50 (second compound 3.16 µM): > 1000 nM | IC50 (second compound 10 µM): > 1000 nM | viability, T/C [1]: 102% | viability, T/C [2]: 96.1% | viability, T/C [3]: 95.6% | viability, T/C [4]: 98.2% | viability, T/C [5]: 112% | viability, T/C [6]: 128% | viability, T/C [7]: 90.3% | viability, T/C [8]: 87.8% | viability, T/C [9]: 90.4% | viability, T/C [10]: 101% | viability, T/C [11]: 112% | viability, T/C [12]: 118% | viability, T/C [13]: 93.6% | viability, T/C [14]: 97.5% | viability, T/C [15]: 103% | viability, T/C [16]: 107% | viability, T/C [17]: 117% | viability, T/C [18]: 121% | viability, T/C [19]: 89.1% | viability, T/C [20]: 105% | viability, T/C [21]: 99.7% | viability, T/C [22]: 107% | viability, T/C [23]: 97.5% | viability, T/C [24]: 122% | viability, T/C [25]: 108% | viability, T/C [26]: 92.3% | viability, T/C [27]: 103% | viability, T/C [28]: 89.7% | viability, T/C [29]: 106% | viability, T/C [30]: 95.4% | viability, T/C [31]: 105% | viability, T/C [32]: 111% | viability, T/C [33]: 90.2% | viability, T/C [34]: 116% | viability, T/C [35]: 93.1% | viability, T/C [36]: 109%

Cn1ncnc1[C@H]1c2n[nH]c(=O)c3cc(F)cc(c23)N[C@@H]1c1ccc(F)cc1 + Cc1c(S(C)(=O)=O)c(-c2cc(F)cc(N3CCN(c4ccc(NS(=O)(=O)c5ccc(NC(CCN6CCC(C(=O)OCCCP(=O)(O)O)CC6)CSc6ccccc6)c(S(=O)(=O)C(F)(F)F)c5)cc4)CC3)c2)c(-c2ccc(Cl)cc2)n1C(C)C
IC50 (second compound 0.0316 µM): > 100 nM | IC50 (second compound 0.1 µM): > 100 nM | IC50 (second compound 0.316 µM): > 100 nM | IC50 (second compound 1 µM): > 100 nM | IC50 (second compound 3.16 µM): > 100 nM | IC50 (second compound 10 µM): > 100 nM | viability, T/C (second compound 0.0316 µM, first compound 0.000316 µM): 96.3% | viability, T/C (second compound 0.0316 µM, first compound 0.001 µM): 94.8% | viability, T/C [1]: 90% | viability, T/C [2]: 103% | viability, T/C [3]: 127% | viability, T/C [4]: 149% | viability, T/C (second compound 0.1 µM, first compound 0.000316 µM): 103% | viability, T/C (second compound 0.1 µM, first compound 0.001 µM): 106% | viability, T/C [7]: 115% | viability, T/C [8]: 123% | viability, T/C [9]: 123% | viability, T/C [10]: 155% | viability, T/C (second compound 0.316 µM, first compound 0.000316 µM): 122% | viability, T/C (second compound 0.316 µM, first compound 0.001 µM): 101% | viability, T/C [13]: 111% | viability, T/C [14]: 101% | viability, T/C [15]: 141% | viability, T/C [16]: 158% | viability, T/C (second compound 1 µM, first compound 0.000316 µM): 106% | viability, T/C (second compound 1 µM, first compound 0.001 µM): 109% | viability, T/C [19]: 106% | viability, T/C [20]: 110% | viability, T/C [21]: 125% | viability, T/C [22]: 160% | viability, T/C (second compound 3.16 µM, first compound 0.000316 µM): 130% | viability, T/C (second compound 3.16 µM, first compound 0.001 µM): 120% | viability, T/C [25]: 92.8% | viability, T/C [26]: 115% | viability, T/C [27]: 138% | viability, T/C [28]: 161% | viability, T/C (second compound 10 µM, first compound 0.000316 µM): 124% | viability, T/C (second compound 10 µM, first compound 0.001 µM): 93.1% | viability, T/C [31]: 88.3% | viability, T/C [32]: 127% | viability, T/C [33]: 169% | viability, T/C [34]: 164%

O=C(c1ccc(F)c(F)c1Nc1ccc(I)cc1F)N1CC(O)([C@@H]2CCCCN2)C1 + Cc1c(S(C)(=O)=O)c(-c2cc(F)cc(N3CCN(c4ccc(NS(=O)(=O)c5ccc(NC(CCN6CCC(C(=O)OCCCP(=O)(O)O)CC6)CSc6ccccc6)c(S(=O)(=O)C(F)(F)F)c5)cc4)CC3)c2)c(-c2ccc(Cl)cc2)n1C(C)C
IC50 (second compound 0.0316 µM): > 1000 nM | IC50 (second compound 0.1 µM): > 1000 nM | IC50 (second compound 0.316 µM): > 1000 nM | IC50 (second compound 1 µM): > 1000 nM | IC50 (second compound 3.16 µM): > 1000 nM | IC50 (second compound 10 µM): > 1000 nM | viability, T/C [1]: 103% | viability, T/C [2]: 114% | viability, T/C [3]: 140% | viability, T/C [4]: 173% | viability, T/C [5]: 234% | viability, T/C [6]: 135% | viability, T/C [7]: 110% | viability, T/C [8]: 134% | viability, T/C [9]: 160% | viability, T/C [10]: 199% | viability, T/C [11]: 254% | viability, T/C [12]: 122% | viability, T/C [13]: 115% | viability, T/C [14]: 115% | viability, T/C [15]: 157% | viability, T/C [16]: 204% | viability, T/C [17]: 244% | viability, T/C [18]: 139% | viability, T/C [19]: 129% | viability, T/C [20]: 157% | viability, T/C [21]: 195% | viability, T/C [22]: 228% | viability, T/C [23]: 258% | viability, T/C [24]: 126% | viability, T/C [25]: 125% | viability, T/C [26]: 137% | viability, T/C [27]: 197% | viability, T/C [28]: 228% | viability, T/C [29]: 253% | viability, T/C [30]: 99.5% | viability, T/C [31]: 154% | viability, T/C [32]: 141% | viability, T/C [33]: 183% | viability, T/C [34]: 224% | viability, T/C [35]: 234% | viability, T/C [36]: 107%
